Measured values reported in US20090081197A1 (Palatin Technologies, Inc., priority 2007, published 2009).
Non-standard residues stand in square brackets, D forms with d. Residues, ends and D or L forms follow the SMILES beside them. *: point of attachment. dPhe(4-Cl) = N[C@H](Cc1ccc(Cl)cc1)C(=O)O; Ahp = NCCCCCCC(=O)O; Bn = c1ccc(C*)cc1

Experiments:
MC4-R [1] = molecular target: T1, MC4-R (Homo sapiens, UniProt P32245); experiment: Assay for neutral antagonist, Schild analysis (pA2) against NDP-α-MSH; format: cell-based; parameters: expressed in transfected cells; host or cells: HEK-293; settings: Schild analysis vs NDP-α-MSH; read-out: pA2 value as antagonist at MC4-R in a normal system (converted)
Experimental: Assay for Neutral Antagonist. […] These studies were carried out in HEK-293 cells expressing the MC4-R receptor. Cells were incubated with the compounds in the presence of the agonist NDP-α-MSH and the extent of antagonism was measured by the decrease in the level of intracellular cAMP. Screening the compounds for antagonists was done at a single concentration of NDP-α-MSH (1.0 nM) over a compound concentration range of 0.5-5000 nM.
Experimental details were similar to the analysis for agonistic activity described above. Briefly, cells were pre-incubated for 30 minutes with the test compounds at concentrations between 0.5 nM and 5000 nM. The cells were then stimulated with NDP-α-MSH at a concentration of 1 nM for 1 hour. For Schild analysis, the interactions were studied using at least 3 concentrations of the compounds, separated by a log unit, over a full range of the agonist (0.005-5000 nM). cAMP levels was measured in the cell lysates after appropriate dilution. Nonlinear regression analysis with Prism Graph-Pad software was used for Schild analysis and to obtain EC50 values. pA2 values were derived from the Schild plot of the data.

MC3-R = MC3-R (Homo sapiens, UniProt P41968); experiment: Competitive inhibition assay using [I^125]-NDP-α-MSH, hMC3-R membranes; format: binding; parameters: expressed in transfected cells; settings: 1 μM test compound; read-out: Inhibition at 1 μM (NDP-α-MSH) In Normal System, MC3-R
In short: (§1)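 Tracer was 0.4 nM for MC3-R and MC5-R, 0.2 nM for MC4-R and 0.1 nM for MC1-R. Bound radioactivity was gamma-counted after filtration; values are triplicate means, with results below 0% reported as 0%.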

MC4-R [2] = molecular target: T1, MC4-R; experiment: Competitive inhibition assay using [I^125]-NDP-α-MSH, hMC4-R membranes; format: binding; parameters: host or cells: TREx-293 (HEK-293 stably expressing Tet repressor); settings: 1 μM test compound; read-out: Inhibition at 1 μM (NDP-α-MSH) In Normal System, MC4-R
In short: as §1

[3] = IP (and IN) food intake, mice; format: in vivo; settings: mouse, IP, 10 mg/kg, 4 hours
In short: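 Male Sprague-Dawley rats dosed IV (0.5-3, up to 10 mg/kg) or IP (0.5-10, up to 50 mg/kg); male C57BL/6 mice dosed IP. Change in food intake and body weight over 24 h post-dose versus 1-week vehicle baseline, with 48 and 72 h reversal checks.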

T1 sequence (P32245 whole entry): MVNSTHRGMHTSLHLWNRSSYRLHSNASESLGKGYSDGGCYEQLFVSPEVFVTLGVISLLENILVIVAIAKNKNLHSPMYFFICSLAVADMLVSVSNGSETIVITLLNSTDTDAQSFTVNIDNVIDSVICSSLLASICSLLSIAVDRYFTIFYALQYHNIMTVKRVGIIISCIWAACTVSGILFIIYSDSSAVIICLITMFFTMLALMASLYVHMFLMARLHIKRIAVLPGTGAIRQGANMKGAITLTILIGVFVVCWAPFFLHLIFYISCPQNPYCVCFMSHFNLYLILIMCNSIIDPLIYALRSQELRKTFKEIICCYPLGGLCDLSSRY
Sequence of MC3-R (P41968 whole entry): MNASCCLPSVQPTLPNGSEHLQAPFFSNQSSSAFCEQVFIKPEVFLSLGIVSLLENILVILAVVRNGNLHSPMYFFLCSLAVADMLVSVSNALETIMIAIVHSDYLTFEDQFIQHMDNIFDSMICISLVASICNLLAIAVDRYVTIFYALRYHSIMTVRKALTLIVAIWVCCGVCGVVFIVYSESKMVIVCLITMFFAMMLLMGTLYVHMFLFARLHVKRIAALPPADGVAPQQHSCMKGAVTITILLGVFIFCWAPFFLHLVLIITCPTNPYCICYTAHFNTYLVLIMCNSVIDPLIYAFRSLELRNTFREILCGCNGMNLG

| SMILES | Kb (MC4-R [1]) | inhibition at 1 µM (MC3-R) | inhibition at 1 µM (MC4-R [2]) | maximal decrease in food intake [3] |
| --- | --- | --- | --- | --- |
| N=C(N)NCCC[C@H](NC(=O)[C@@H](Cc1ccc(Cl)cc1)NC(=O)[C@H](COCc1ccccc1)NC(=O)CCCCCCN)C(=O)N[C@@H](Cc1c[nH]c2ccccc12)C(=O)N[C@@H](CC(=O)O)C(N)=O [Example 13, NH2—(CH2)6—C(═O)-Ser(Bzl)-D-Phe(4-Cl)-Arg-Trp-Asp-NH2] (H-[Ahp]S(Bn)[dPhe(4-Cl)]RWD-NH2) | 50.1 nM | 73% | 98% |  |
| N=C(N)NCCC[C@H]1CN(CCc2ccc3ccccc3c2)CCN1C(=O)[C@H](N)Cc1ccc(Cl)cc1Cl [Example 17, N-{3-[(S)-1-[(R)-2-Amino-3-(2,4-dichloro-phenyl)-propionyl]-4-(2-naphthalen-2-yl-ethyl)-piperazin-2-yl]-propyl}-guanidine] |  | 87% | 99% | 86% |
